This note sets out measurements from patent publication US20260034079A1, “PHARMACEUTICAL COMPOSITION CONTAINING HYDROXYUREA FOR USE IN THE TREATMENT OF SEVERE CHRONIC ANEMIA” (THERAVIA, priority 2019, published 2026).

SMILES strings stand for the structures.

In the assay the test system is sickle cell patients with severe chronic anaemia. The assay is described as follows: Clinical trial: hematological parameters during treatment with Siklos in HU-naive sickle cell patients with severe chronic anaemia. It counts as in vivo, human. The protocol: This study was conducted with a pharmaceutical composition identical to that of Siklos.
The dose of hydroxycarbamide is comprised from 5 to 30 mg/kg/day.
The results of the evaluation of the hematological parameters of the patients are recorded in the table below.

The mark [1] stands for this setting: 12 months after the start of the treatment, p<0.001.

Take `NC(=O)NO` [hydroxycarbamide, hydroxyurea]: the “Haemoglobin, value after initiation of the treatment” value (12 months after initiation of Siklos (between 10 and 14 months), 41 patients, base value 7.16 ± 1.06, 5 to 30 mg/kg/day) was found to be 7.89 ± 1.11 g/dL. Under “12 months after initiation of Siklos (between 10 and 14 months), 41 patients, p 0.001”, the “Variation of the haemoglobin, change with respect to the base value” worked out at 0.73 ± 1.30 g/dL. In addition, under setting [1], the “Mean blood volume, change” value is “+10.82±11.42” and the “Number of reticulocytes, change” value is on record as −91.5±115.6. Besides, the “Absolute number of neutrophil” value (after the start of the treatment, indicating adequate compliance) is reported as “decreased”. In addition, the “Evolution of the fetal haemoglobin, change with respect to the base value” (at least 6 months after initiation of Siklos (between 5 and 14 months), 23 patients, p <0.001) turned out to be 6.37±6.38%. Moreover, the “Variation of the haemoglobin, change with respect to the base value” (at least 6 months after initiation of Siklos (between 5 and 14 months), 55 patients, p <0.001) came out at 0.65 ± 1.24 g/dL.
